Measured values: patent publication US8389011B2, “Pharmaceutical compositions of cholesteryl ester transfer protein inhibitors” (Bend Research, Inc., priority 2000, dated 2013)
In brackets after ≈: the same amount, converted by molar mass. Where two headings read alike, the source gives them in different places. One block for each compound: values may come before it.

Assays:
[1] = In vitro dissolution test, microcentrifuge method, in model fasted duodenal solution (MFDS); type: physicochemical
Description: The compositions comprising the CETP inhibitor and concentration-enhancing polymer provide enhanced concentration of the dissolved CETP inhibitor in in vitro dissolution tests. It has been determined that enhanced drug concentration in in vitro dissolution tests in Model Fasted Duodenal (MFD) solution or Phosphate Buffered Saline (PBS) is a good indicator of in vivo performance and bioavailability. An appropriate PBS solution is an aqueous solution comprising 20 mM sodium phosphate (Na2HPO4), 47 mM potassium phosphate (KH2PO4), 87 mM NaCl, and 0.2 mM KCl, adjusted to pH 6.5 with NaOH. An appropriate MFD solution is the same PBS solution wherein additionally is present 7.3 mM sodium taurocholic acid and 1.4 mM of 1-palmitoyl-2-oleyl-sn-glycero-3-phosphocholine. In particular, a composition of the present invention can be dissolution-tested by adding it to MFD or PBS solution and agitating to promote dissolution.
A typical in vitro test to evaluate enhanced drug concentration in aqueous solution can be conducted by (1) adding with agitation a sufficient quantity of control composition, typically the CETP inhibitor alone, to the in vitro test medium, typically MFD or PBS solution, to achieve equilibrium concentration of the CETP inhibitor; (2) adding with agitation a sufficient quantity of test composition (e.g., the CETP inhibitor and polymer) in an equivalent test medium, such that if all the CETP inhibitor dissolved, the theoretical concentration of CETP inhibitor would exceed the equilibrium concentration of the CETP inhibitor by a factor of at least 10, and preferably a factor of at least 100; and (3) comparing the measured MDC and/or aqueous concentration versus time AUC of the test composition in the test medium with the equilibrium concentration, and/or the aqueous concentration versus time AUC of the control composition. In conducting such a dissolution test, the amount of test composition or control composition used is an amount such that if all of the CETP inhibitor dissolved the CETP inhibitor concentration would be at least 10-fold and preferably at least 100-fold that of the equilibrium concentration. Indeed, for some extremely insoluble CETP inhibitors, in order to identify the MDC achieved it may be necessary to use an amount of test composition such that if all of the CETP inhibitor dissolved, the CETP inhibitor concentration would be 10,000-fold or even more, that of the equilibrium concentration of the CETP inhibitor.
The concentration of dissolved CETP inhibitor is typically measured as a function of time by sampling the test medium and plotting CETP inhibitor concentration in the test medium vs. time so that the MDC can be ascertained. The MDC is taken to be the maximum value of dissolved CETP inhibitor measured over the duration of the test.
To avoid large CETP inhibitor particulates which would give an erroneous determination, the test solution is either filtered or centrifuged. “Dissolved CETP inhibitor” is typically taken as that material that either passes a 0.45 μm syringe filter or, alternatively, the material that remains in the supernatant following centrifugation. Filtration can be conducted using a 13 mm, 0.45 μm polyvinylidine difluoride syringe filter sold by Scientific Resources under the trademark TITAN®. Centrifugation is typically carried out in a polypropylene microcentrifuge tube by centrifuging at 13,000 G for 60 seconds. Other similar filtration or centrifugation methods can be employed and useful results obtained. For example, using other types of microfilters may yield values somewhat higher or lower (±10-40%) than that obtained with the filter specified above but will still allow identification of preferred dispersions. […]

[2] = Solubility in water; type: physicochemical
Source text: The invention is useful for CETP inhibitors which have sufficiently low aqueous solubility, low bioavailability or slow rate of absorption such that it is desirable to increase their concentration in an aqueous environment of use. Therefore, anytime one finds it desirable to raise the aqueous concentration of the CETP inhibitor in a use environment, the invention will find utility.

[3] = Table 9, Drug 2, receptor solution MFDS, TCmax 400 μg/mL (Examples 14-16: 100 μg/mL)
[4] = aqueous solubility determined at about 22° C. unless otherwise specified, read-out: solubility in water

- Concentration ([1]; Table 2, Drug 1, MFDS, 37° C., 0 min, TCmax 100 μg/mL (Example 4: 500 μg/mL)): 0 µg/mL
- Concentration ([1]; Table 2, Drug 1, MFDS, 37° C., 4 min, TCmax 100 μg/mL): <0.1 µg/mL
- Concentration ([1]; Table 2, Drug 1, MFDS, 37° C., 10 min, TCmax 100 μg/mL (Example 4: 500 μg/mL)): 0.3 µg/mL
- Concentration ([1]; Table 2, Drug 1, MFDS, 37° C., 20 min, TCmax 100 μg/mL): 0.3 µg/mL
- Concentration ([1]; Table 2, Drug 1, MFDS, 37° C., 40 min, TCmax 100 μg/mL): 0.9 µg/mL
- Concentration ([1]; Table 2, Drug 1, MFDS, 37° C., 90 min, TCmax 100 μg/mL (Example 4: 500 μg/mL)): 0.8 µg/mL
- AUC ([1]; Table 2, Drug 1, MFDS, 37° C., to 0 min, TCmax 100 μg/mL (Example 4: 500 μg/mL)): 0 min-μg/mL
- AUC ([1]; Table 2, Drug 1, MFDS, 37° C., to 4 min, TCmax 100 μg/mL): <0.1 min-μg/mL
- AUC ([1]; Table 2, Drug 1, MFDS, 37° C., to 10 min, TCmax 100 μg/mL (Example 4: 500 μg/mL)): 1 min-μg/mL
- AUC ([1]; Table 2, Drug 1, MFDS, 37° C., to 20 min, TCmax 100 μg/mL): 4 min-μg/mL
- AUC ([1]; Table 2, Drug 1, MFDS, 37° C., to 40 min, TCmax 100 μg/mL): 16 min-μg/mL
- AUC ([1]; Table 2, Drug 1, MFDS, 37° C., to 90 min, TCmax 100 μg/mL (Example 4: 500 μg/mL)): 57 min-μg/mL
- AUC90 ([1]; Table 3, area under the aqueous concentration versus time curve during the 90-minute test, Drug 1, MFDS, TCmax 100 μg/mL (Example 4: 500 μg/mL)): 57 min-μg/mL
- Cmax, 90 ([1]; Table 3, maximum concentration of Drug 1 in solution during the 90-minute test, MFDS, TCmax 100 μg/mL (Example 4: 500 μg/mL)): 0.9 µg/mL
SMILES: COC(=O)N(Cc1cc(C(F)(F)F)cc(C(F)(F)F)c1)[C@@H]1C[C@H](C2CC2)N(C(=O)OC(C)C)c2ccc(C(F)(F)F)cc21 [Control 1, [2R,4R]4-[(3,5-bis-trifluoromethyl-benzyl)-methoxycarbonyl-amino]-2-cyclopropyl-6-trifluoromethyl-3,4-dihydro-2H-quinoline-1-carboxylic acid isopropyl ester]

- Concentration ([1]; Table 8, Drug 2, receptor MFDS, 0 min, TCmax 400 μg/ml (Examples 14-16: 100 μg/ml)): 0 µg/mL
- Concentration ([1]; Table 8, Drug 2, receptor MFDS, 4 min, TCmax 400 μg/ml): <1 µg/mL
- Concentration ([1]; Table 8, Drug 2, receptor MFDS, 10 min, TCmax 400 μg/ml (Examples 14-16: 100 μg/ml)): <1 µg/mL
- Concentration ([1]; Table 8, Drug 2, receptor MFDS, 20 min, TCmax 400 μg/ml (Examples 14-16: 100 μg/ml)): <1 µg/mL
- Concentration ([1]; Table 8, Drug 2, receptor MFDS, 40 min, TCmax 400 μg/ml (Examples 14-16: 100 μg/ml)): <1 µg/mL
- Concentration ([1]; Table 8, Drug 2, receptor MFDS, 90 min, TCmax 400 μg/ml (Examples 14-16: 100 μg/ml)): <1 µg/mL
- AUC ([1]; Table 8, Drug 2, receptor MFDS, to 0 min, TCmax 400 μg/ml (Examples 14-16: 100 μg/ml)): 0 min-μg/ml
- AUC ([1]; Table 8, Drug 2, receptor MFDS, to 4 min, TCmax 400 μg/ml): <4 min-μg/ml
- AUC ([1]; Table 8, Drug 2, receptor MFDS, to 10 min, TCmax 400 μg/ml (Examples 14-16: 100 μg/ml)): <10 min-μg/ml
- AUC ([1]; Table 8, Drug 2, receptor MFDS, to 20 min, TCmax 400 μg/ml (Examples 14-16: 100 μg/ml)): <20 min-μg/ml
- AUC ([1]; Table 8, Drug 2, receptor MFDS, to 40 min, TCmax 400 μg/ml (Examples 14-16: 100 μg/ml)): <40 min-μg/ml
- AUC ([1]; Table 8, Drug 2, receptor MFDS, to 90 min, TCmax 400 μg/ml (Examples 14-16: 100 μg/ml)): <90 min-μg/ml
- AUC90 [1, 3]: <90 min-μg/mL
- Cmax, 90 [1, 3]: <1 µg/mL
- AUC90 ([1]; Table 22: Drug 2, MFD solution): <90 min-μg/mL
- Cmax, 90 ([1]; Table 22: Drug 2, MFD solution): <1 µg/mL
SMILES: CCOC(=O)N1c2ccc(C(F)(F)F)cc2[C@@H](N(Cc2cc(C(F)(F)F)cc(C(F)(F)F)c2)C(=O)OC)C[C@H]1CC [Control 3, [2R,4S]4-[(3,5-bis-trifluoromethyl-benzyl)-methoxycarbonyl-amino]-2-ethyl-6-trifluoromethyl-3,4-dihydro-2H-quinoline-1-carboxylic acid ethyl ester]

- solubility [2, 4]: < 1 µg/mL
SMILES: COC(=O)N(Cc1cc(C(F)(F)F)cc(C(F)(F)F)c1)[C@@H]1C[C@H](C2CC2)N(C(=O)OC(C)C)c2ccc(C(F)(F)F)cc21 [Drug 1, [2R,4R]4-[(3,5-bis-trifluoromethyl-benzyl)-methoxycarbonyl-amino]-2-cyclopropyl-6-trifluoromethyl-3,4-dihydro-2H-quinoline-1-carboxylic acid isopropyl ester]

- solubility ([2]; 22 °C, crystalline drug, read-out: solubility of crystalline Drug 2 (accurate measurements)): ~0.01 µg/mL (≈ 0.0167 µM)
- solubility [2, 4]: < 1 µg/mL
SMILES: CCOC(=O)N1c2ccc(C(F)(F)F)cc2[C@@H](N(Cc2cc(C(F)(F)F)cc(C(F)(F)F)c2)C(=O)OC)C[C@H]1CC [Drug 2, [2R,4S]4-[(3,5-bis-trifluoromethyl-benzyl)-methoxycarbonyl-amino]-2-ethyl-6-trifluoromethyl-3,4-dihydro-2H-quinoline-1-carboxylic acid ethyl ester]

- solubility [2, 4]: < 0.1 µg/mL
SMILES: CCCOC(=O)N1c2ccc(C(F)(F)F)cc2[C@@H](N(Cc2cc(C(F)(F)F)cc(C(F)(F)F)c2)C(=O)OC)C[C@H]1CC [Drug 3, [2R,4S]4-[(3,5-bis-trifluoromethyl-benzyl)-methoxycarbonyl-amino]-2-ethyl-6-trifluoromethyl-3,4-dihydro-2H-quinoline-1-carboxylic acid propyl ester]

- solubility [2, 4]: < 1 µg/mL
SMILES: CCOC(=O)N1c2cc(OC)c(OC)cc2[C@@H](N(Cc2cc(C(F)(F)F)cc(C(F)(F)F)c2)C(=O)OC)C[C@H]1C [Drug 4, [2R,4S]4-[(3,5-bis-trifluoromethyl-benzyl)-methoxycarbonyl-amino]-6,7-dimethoxy-2-methyl-3,4-dihydro-2H-quinoline-1-carboxylic acid ethyl ester]

- solubility [2, 4]: < 1 µg/mL
SMILES: CCOC(=O)N1c2cc(CC)c(CC)cc2[C@@H](N(Cc2cc(C(F)(F)F)cc(C(F)(F)F)c2)C(=O)OC)C[C@H]1C [Drug 5, [2R,4S]4-[(3,5-bis-trifluoromethyl-benzyl)-methoxycarbonyl-amino]-6,7-diethyl-2-methyl-3,4-dihydro-2H-quinoline-1-carboxylic acid ethyl ester]

- solubility [2, 4]: < 1 µg/mL
SMILES: CCOC(=O)N1c2cc3c(cc2[C@@H](N(Cc2cc(C(F)(F)F)cc(C(F)(F)F)c2)C(=O)OC)C[C@H]1C)CCC3 [Drug 6, [2R,4S]4-[(3,5-bis-trifluoromethyl-benzyl)-methoxycarbonyl-amino]-2-methyl-2,3,4,6,7,8-hexahydro-cyclopenta[g]quinoline-1-carboxylic acid ethyl ester]

- solubility [2, 4]: < 1 µg/mL
SMILES: CC[C@@H]1C[C@H](N(Cc2cc(C(F)(F)F)cc(C(F)(F)F)c2)C(C)=O)c2cc(C(F)(F)F)ccc2N1C(=O)OC(C)C [Drug 7, [2R,4S]4-[acetyl-(3,5-bis-trifluoromethyl-benzyl)-amino]-2-ethyl-6-trifluoromethyl-3,4-dihydro-2H-quinoline-1-carboxylic acid isopropyl ester]

- solubility [2, 4]: < 1 µg/mL
SMILES: COC(=O)N(Cc1cc(C(F)(F)F)cc(C(F)(F)F)c1)[C@H]1C[C@@H](C2CC2)N(C(=O)OC(C)C)c2ccc(C(F)(F)F)cc21 [Drug 8, [2S,4S]4-[(3,5-bis-trifluoromethyl-benzyl)-methoxycarbonyl-amino]-2-cyclopropyl-6-trifluoromethyl-3,4-dihydro-2H-quinoline-1-carboxylic acid isopropyl ester]

- solubility [2, 4]: < 1 µg/mL
SMILES: CC(C)c1cc2c(c(-c3ccc(F)cc3)c1[C@@H](F)c1ccc(C(F)(F)F)cc1)[C@@H](O)CC1(CCC1)C2 [Drug 10, (4′S)-5′-(4-fluorophenyl)-6′-[(S)-fluoro[4-(trifluoromethyl)phenyl]methyl]-3′,4′-dihydro-7′-(1-methylethyl)-spiro[cyclobutane-1,2′(1′H)-naphthalen]-4′-ol]
